Experimental data taken from patent US20020136789A1, “Use of tagetes minuta oil and its components as antiviral agents” (COUNCIL OF SCIENTIFIC & INDUSTRIAL RESEARCH, priority 2001, published 2002).
Values joined by “and” are separate entries in the source; they are usually repeats but may differ in a detail not shown here. Equal values may be shown once.

How the values were obtained:
[1] = tested on: 8 bacterial strains; settings: cited from earlier work
[2] = tested on: mosquito; settings: in vivo; cited from earlier work
[3] = tested on: HIV replication; settings: cited from earlier work
[4] = tested on: Carnation ring spot virus (CaRSV); assay: Local lesion assay of CaRSV on Chenopodium amaranticolor leaves (test half leaf vs virus+buffer control); type: in vivo; settings: for Percentage Inhibition of CaRSV, IInd Treatment: compounds after extraction, summary of three experiments; for Percentage Inhibition of CaRSV, IIIrd Treatment: compounds after storing at 0° C.; for No. of Lesions on Test / % inhibition / Average No. of lesions Test / Test (number of lesions): CaRSV; for No. of Lesions on Test: 24 hrs room temperature, ten leaves; for No. of Lesions on Test / % inhibition / Average No. of lesions Test: Chenopodium amaranticolor; for Test (number of lesions): compound stored at 0° C. for two months; for antiviral activity against CaRSV (in words): components tested individually in pure form
Description: (§1) Each concentration of whole Tagetes minuta oil and its pure isolated components were applied on 10 leaves so that the average could be taken.
(§2) The whole oil of Tagetes minuta and its pure components i.e. ocimene and dihydrotagetone were tested individually with virus cultures of CaVMV and CaRSV and applied on the leaves of Chenopodium amaranticolor. In all the experiments each concentration of three testing mixtures were applied on ten leaves of Chenopodium amaranticolor palnt. The isolated compounds were stored at 0° C. for two months and the experiments were repeated.
(§3) The Cultures of Carnation ring spot and Carnation vein motto viruses were maintained both in natural host and on Phaseolus vulgaris and Chenopodium quinoa which are maintenance and propagation host of these viruses respectively. For virus culture, leaves of fifteen days old individual virus inoculated host plants with CaVMV and CaRSV were ground in phosphate buffer pH 7.5 and the viruses were extracted separately in crude sap.
(§4) Activity of the above volatile oils were tested against Carnation ring spot and Carnation vein mottle virus in different dilutions. Most of the tests were performed by using 0.5% and 2.5% concentration of essential oils as the phytotoxic effect appeared on Chenopodium amaranticolor leaves, at higher concentrations. The 0.5% and 2.5% concentration of essential oils were mixed with crude sap containing each virus and incubated at room temperature for 24 hrs. After incubation, sap containing virus were inoculated individually on bioassay host Chenopodium amaranticolor after adding Cellite (as abrasive) to monitor the inhibitory effect. Following results were obtained in different concentrations.

[5] = tested on: Carnation vein mottle virus (CaVMV); assay: Local lesion assay of CaVMV on Chenopodium amaranticolor leaves (test half leaf vs virus+buffer control); type: in vivo; settings: for Percentage Inhibition of CaVMV, IInd Treatment: compounds after extraction, summary of three experiments; for Percentage Inhibition of CaVMV, IIIrd Treatment: compounds after storing at 0° C.; for No. of Lesions on Test / % inhibition / Average No. of lesions Test / Test (number of lesions): CaVMV; for No. of Lesions on Test: 24 hrs room temperature, ten leaves; for No. of Lesions on Test / % inhibition / Average No. of lesions Test: Chenopodium amaranticolor; for Test (number of lesions): compound stored at 0° C. for two months; for antiviral activity against CaVMV (in words): components tested individually in pure form
Description: as §1, §2, §3, §4

[6] = tested on: Cox B1; settings: concentrations 12-47 μg/ml; cited from earlier work
[7] = tested on: HSV-1; settings: concentrations 12-47 μg/ml; cited from earlier work
[8] = tested on: BGMV; settings: in vivo; cited from earlier work
[9] = tested on: PNRSV; settings: in vivo; cited from earlier work
[10] = tested on: PVX; settings: cited from earlier work
[11] = tested on: CaMV; settings: in vivo; cited from earlier work
[12] = tested on: SSV; settings: in vivo; cited from earlier work
[13] = tested on: TMV; settings: except during very early replicative steps following inoculation; cited from earlier work
[14] = tested on: PVX; settings: susceptible viruses such as PVX; cited from earlier work
[15] = 0.5% concentration mixed with crude sap
[16] = 2.5% concentration mixed with crude sap

For `CC12CCC(CC1)C(C)(C)O2` [1,8 cineole], the “activity against 8 bacterial strains” value [1] is listed as “exhibited activity”.

For `C=C/C(C)=C/C(=O)C=C(C)C` [5-E Ocimenone], the mosquito larvaecideal activity [2] is listed as “mosquito larvaecideal activity”.

For `CC12CCC(CC1=O)C2(C)C` (stereo not shown) [Camphor, camphor], the “activity against 8 bacterial strains” value [1] is given as “almost inactive”.

For `CC1=CC[C@@H]([C@@H](C)[C@H]2CC[C@@]3(C)C4=C(C=C(CCC(=O)O)C(=C(C)C)C=C4)CC[C@]23C)OC1=O` [Compound 3], the therapeutic index ([3]; HIV replication) is listed as “greater than 71.4” and the “EC50, inhibition of HIV replication” value [3] is listed as 1400 µg/mL.

With `C=CC(C)CC(=O)CC(C)C` (stereo not shown) [Dihydrotagetone, dihydrotagetone] the “Percentage Inhibition of CaRSV, IInd Treatment” value ([4]; 0.5%) was 71.6%, the “Percentage Inhibition of CaRSV, IIIrd Treatment” value ([4]; 0.5%) was 100% and the “Percentage Inhibition of CaRSV, IInd Treatment” value ([4]; 2.5%) was 81.06%. For the same compound, the “Percentage Inhibition of CaRSV, IIIrd Treatment” value ([4]; 2.5%) was 100%, the “No. of Lesions on Test” value [4, 15] was 32 and 41 and 42 and the “% inhibition” value ([4]; 0.5% concentration) was 72.1% and 70.9% and 72.0%. The “Average No. of lesions Test” value ([4]; 0.5% concentration) was 4.22 and 4.44 and 5.00, the “Test (number of lesions)” value ([4]; 0.5% concentration) was 0 and the “% inhibition” value ([4]; 2.5% concentration) was 81.8% and 82.0% and 79.4%. The “Average No. of lesions Test” value ([4]; 2.5% concentration) was 2.8 and 2.5 and 4.0, the “Test (number of lesions)” value ([4]; 2.5% concentration) was 0 and the “antiviral activity against CaRSV (in words)” value [4] was “enhanced antiviral activity”. For the same compound, the “Percentage Inhibition of CaVMV, IInd Treatment” value ([5]; 0.5%) was 72.2%, the “Percentage Inhibition of CaVMV, IIIrd Treatment” value ([5]; 0.5%) was 100% and the “Percentage Inhibition of CaVMV, IInd Treatment” value ([5]; 2.5%) was 83.6%. The “Percentage Inhibition of CaVMV, IIIrd Treatment” value ([5]; 2.5%) was 100%, the “No. of Lesions on Test” value [5, 15] was 38 and 40 and 45 and the “% inhibition” value ([5]; 0.5% concentration) was 73.04% and 73.3% and 70.3%. For the same compound, the “Average No. of lesions Test” value ([5]; 0.5% concentration) was 4.22 and 4.44 and 5.00, the “Test (number of lesions)” value ([5]; 0.5% concentration) was 0 and the “No. of Lesions on Test” value [5, 16] was 31 and 25 and 38. The “% inhibition” value ([5]; 2.5% concentration) was 83.0% and 87.0% and 81.0%, the “Average No. of lesions Test” value ([5]; 2.5% concentration) was 3.44 and 2.77 and 4.20 and the “Test (number of lesions)” value ([5]; 2.5% concentration) was 0. For the same compound, the “antiviral activity against CaVMV (in words)” value [5] was “enhanced antiviral activity”.

In the case of `C=C/C(C)=C\CC=C(C)C` [Ocimene, Z-β-ocimene], the “Percentage Inhibition of CaRSV, IInd Treatment” value ([4]; 0.5%) is reported as 67.9%, the “Percentage Inhibition of CaRSV, IIIrd Treatment” value ([4]; 0.5%) is reported as 100% and the “Percentage Inhibition of CaRSV, IInd Treatment” value ([4]; 2.5%) is reported as 80.9%. For the same compound, the “Percentage Inhibition of CaRSV, IIIrd Treatment” value ([4]; 2.5%) was 100%, the “No. of Lesions on Test” value [4, 15] was 60 and 65 and 58 and the “% inhibition” value ([4]; 0.5% concentration) was 69.6% and 66.6% and 67.7%. The “Average No. of lesions Test” value ([4]; 0.5% concentration) was 6.0 and 6.5 and 5.8, the “Test (number of lesions)” value ([4]; 0.5% concentration) was 0 and the “No. of Lesions on Test” value [4, 16] was 40 and 25 and 35. For the same compound, the “% inhibition” value ([4]; 2.5% concentration) was 80.4% and 81.4% and 81.0%, the “Average No. of lesions Test” value ([4]; 2.5% concentration) was 4.0 and 2.5 and 3.5 and the “Test (number of lesions)” value ([4]; 2.5% concentration) was 0. For the same compound, the “antiviral activity against CaRSV (in words)” value [4] was “enhanced antiviral activity”, the “Percentage Inhibition of CaVMV, IInd Treatment” value ([5]; 0.5%) was 70.2% and the “Percentage Inhibition of CaVMV, IIIrd Treatment” value ([5]; 0.5%) was 100%. For the same compound, the “Percentage Inhibition of CaVMV, IInd Treatment” value ([5]; 2.5%) was 84.3%, the “Percentage Inhibition of CaVMV, IIIrd Treatment” value ([5]; 2.5%) was 100% and the “No. of Lesions on Test” value [5, 15] was 66 and 70 and 65. The “% inhibition” value ([5]; 0.5% concentration) was 71.05% and 63.50% and 72.1%, the “Average No. of lesions Test” value ([5]; 0.5% concentration) was 6.6 and 7.0 and 6.5 and the “Test (number of lesions)” value ([5]; 0.5% concentration) was 0. For the same compound, the “No. of Lesions on Test” value [5, 16] was 43 and 40 and 38, the “% inhibition” value ([5]; 2.5% concentration) was 83.58% and 84.00% and 85.66% and the “Average No. of lesions Test” value ([5]; 2.5% concentration) was 4.3 and 4.0 and 3.8. For the same compound, the “Test (number of lesions)” value ([5]; 2.5% concentration) was 0 and the “antiviral activity against CaVMV (in words)” value [5] was “enhanced antiviral activity”.

In the case of `O=c1c(O)c(-c2ccccc2)oc2cc(O)cc(O)c12` [galangin], the “antiviral activity against Cox B1” value [6] is given as “significant antiviral activity” and the “antiviral activity against HSV-1” value [7] is given as “significant antiviral activity”.

In the case of `NC(=O)c1ncn([C@@H]2O[C@H](CO)[C@@H](O)[C@H]2O)n1` [ribavirin, Ribavirin], the “effectiveness against BGMV” value [8] is given as “relatively or completely ineffective”, the “susceptibility of PNRSV” value [9] is given as “resistant” and the “developing shoots into which virus spread was prevented” value ([10]; 10 ppm, differentiating calli) is given as 90%. The “inhibition of PVX in callus culture” value ([10]; 100 ppm in the medium) was “not inhibited”, the “effectiveness against CaMV” value [11] was “relatively or completely ineffective” and the “effectiveness against SSV” value [12] was “relatively or completely ineffective”. For the same compound, the “susceptibility of TMV” value [13] was “much less susceptible than other viruses” and the “concentration needed to inhibit local lesion development and to prevent infection” value [14] was “Approximately 1000 ppm”.

For `CC(C)[C@]12CC(=O)[C@H](C)[C@H]1C2` [thujone], the “activity against 8 bacterial strains” value [1] is given as “exhibited activity”.
